One data set concerns INS-1 cells. The data set can be described thus: Insulin secretion assay in INS-1 cells (glucose at 4.2 mM). In kind it is cell-based. To be noted: Rattus norvegicus, INS1, glucose 4.2 mM, 1 h incubation; for activity at 10 µM: compound 10 μM, read-out: Insulin secretion, % of ctrl at 10 μM; for activity at 50 µM: compound 50 μM, read-out: Insulin secretion, % of ctrl at 50 μM. On the procedure:
Culture of Pancreatic INS-1 Cells
INS-1 cells were cultured in complete medium, RPMI 1640 containing 1 mM sodium pyruvate, 50 μM 2-mercaptoethanol, 2 mM glutamine, 10 mM HEPES, 100 IU/mL penicillin, and 100 μg/mL streptomycin (CM), supplemented with 10 mM glucose, and 10% (vol/vol) heat-inactivated fetal calf serum (FCS), as described by Asfari et al. (Endocrinology 130: 167-178, 1992).
INS-1 cells were plated and cultured in 48-well plates. After 2 days of culture, the medium was removed and cells were cultured for 24 h with a medium change to 5 mM glucose, 1% FCS. The cells were then washed with Krebs-Ringer Bicarbonate HEPES buffer (KRBH; 135 mM NaCl; 3.6 mM KCl; 5 mM NaHCO3; 0.5 mM NaH2PO4;
0.5 mM MgCl2; 1.5 mM CaCl2 and 10 mM HEPES; pH 7.4) 0.1% BSA containing 2.8 mM glucose and preincubated for 30 min at 37° C. in the same buffer. The cells were then washed twice and incubated for 1 h in KRBH 0.1% BSA containing 4.2 mM glucose and different concentrations of the tested molecule. Insulin concentration in the collected supernatants was measured with ELISA using rat insulin antibody (Insulin Rat Elit PLUS, cat. ref 10-1145-01).
Insulin secretion results are expressed in % of control (glucose 4.2 mM).
Insulin Secretion in INS-1 Cells (Glucose at 4.2 mM)

The subject of data set [1] is diabetic N0STZ rat islets. The data set can be described thus: Insulin secretion in diabetic N0STZ rat islets. In kind it is cell-based. To be noted: 90 min, mean ± SEM. On the procedure:
Insulin Secretion in Diabetic N0STZ Rat Islets. Materials and Methods. Islets Isolation and Treatments.
14±3 weeks non-fasted N0STZ (PORTHA et al., 1974) male rats (Charles Rivers-Domaine des Oncins, I'Arbresle, France) were anesthetised with sodium pentobarbital (Nembutal®: 45 mg/kg in 5 ml/kg administered intra peritoneally) and body temperature was maintained with a heat lamp.
Rat pancreatic islets of Langerhans were isolated from the pancreas of 8 rats by collagenase P (Boehringer, Meylan, France) digestion. Islets were purified by sedimentation in Hanks balanced salt solution [NaCl (137 mM); KCl (5.36 mM); MgSO4, 7H2O (0.81 mM); Na2HPO4, 12H2O (0.34 mM); KH2PO4 (0.44 mM); CaCl2, 2H2O (1.26 mM); NaHCO3 (4.17 mM)] followed by Ficoll gradient separation.
Islets were then hand-picked under stereoscopic microscope and batches of 3 islets were incubated for 90 minutes at 37° C. with continuous shaking under a humidified condition (95% O2, 5% CO2) in 1 ml of Krebs/Hepes pH 7 solution [NaCl (115 mM), NaHCO3 (24 mM), KCl (5 mM), MgCl2 (1 mM), CaCl2, 2H2O (1 mM), 0.2% of Bovine serum albumin (Fraction V, fatty acid free, Boehringer, Mannheim), 10 mM Hepes] containing the required glucose or compound concentration.
Compounds were dissolved in DMSO at 2.10-2M stock solutions. They were then diluted at the required concentration in Krebs/Hepes buffer containing the required glucose concentration.
At the end of incubation, media was collected and insulin levels were measured using ELISA (EUROBIO, Courtaboeuf, France).
Islets were hand-picked and incubated in the presence of increasing concentrations of compounds in the presence of glucose at 2.8 or 8 mM. At the end of incubation, media was collected and insulin levels were measured using ELISA method. Results are expressed as % of glucose control (2.8 or 8 mM) and represent Means±SEM.

Setting [2] is: glucose 2.8 mM, compound 10−4 M.

`CCCn1ccnc(S(=O)(=O)CCc2ccc(Cl)cc2)c1=O` [Example 10-6]: in the data set on INS-1 cells, the activity at 10 µM stood at 127% and the activity at 50 µM worked out at 180%.
As for `CCn1cc(Cl)nc(SCC(=O)Nc2ccccc2)c1=O` [Example 17, 2-[(6-chloro-4-ethyl-3-oxo-3,4-dihydropyrazin-2-yl)thio]-N-phenylacetamide], the melting point (usually the temperature, or range, at which the solid turns liquid) was in the range of 156 to 158 °C.
Turning to `CCCCn1ccnc(S(=O)(=O)Cc2ccccc2F)c1=O` [Example 10-3, 1-butyl-3-[(2-fluorobenzyl)sulfonyl]pyrazin-2(1H)-one], in the data set with INS-1 cells, the activity at 10 µM was 108% and the activity at 50 µM stood at 236%.
On to `CCn1cc(-c2ccc(Cl)cc2)nc(S(=O)(=O)Cc2ccc(Cl)cc2)c1=O` [Example 14-2, 3-[(4-chlorobenzyl)sulfonyl]-5-(4-chlorophenyl)-1-ethylpyrazin-2(1H)-one], for which, in the data set with INS-1 cells, the activity at 10 µM was 181%.
Regarding `CCn1cc(Cl)nc(S(=O)(=O)CC(=O)N2CCCCC2)c1=O` [Example 18-2, 5-chloro-1-ethyl-3-[(2-oxo-2-piperidin-1-ylethyl)sulfonyl]pyrazin-2(1H)-one], in the data set on INS-1 cells, the activity at 10 µM is 159% and the activity at 50 µM came out at 213%.
The compound `CCn1ccnc(S(=O)(=O)Cc2ccc(Br)cc2)c1=O` [Example 6-6, 1-ethyl-3-[(4-bromobenzyl)sulfonyl]pyrazin-2(1H)-one] returned a melting point of 135 to 138 °C. Further, in the data set with INS-1 cells, the activity at 10 µM was 164% and the activity at 50 µM was found to be 362%.
In the same order, the values of `CCn1ccnc(S(=O)(=O)Cc2ccc(Cl)cc2)c1=O` [Example 6-2, 3-[(4-chlorobenzyl)sulfonyl]-1-ethylpyrazin-2(1H)-one] are 115 to 118 °C, 142% and 276%.
Consider `CCCCn1ccnc(S(=O)(=O)Cc2ccc(Cl)cc2)c1=O` [Example 10-5, 1-butyl-3-[(4-chlorobenzyl)sulfonyl]pyrazin-2(1H)-one], for which, in the data set on INS-1 cells, the activity at 10 µM was determined as 153% and the activity at 50 µM was found to be 261%.
Compound `CCCn1ccnc(S(=O)(=O)Cc2ccc(Cl)cc2)c1=O` [Example 10, 3-[(4-chlorobenzyl)sulfonyl]-1-propylpyrazin-2(1H)-one] displayed a melting point of 125 to 128 °C. For the same compound, in the data set with INS-1 cells, the activity at 10 µM is 155% and the activity at 50 µM is 331%. Also, the “Insulin secretion, % of glucose control” value in data set [1] (setting [2]) was 178 ± 7 % of glucose control. The “Insulin secretion, % of glucose control” value in data set [1] (glucose 8 mM, compound 10−4 M) is 203 ± 11 % of glucose control. Also, the “Insulin secretion, % of glucose control” value in data set [1] (glucose 8 mM, compound 10−5 M) was 133 ± 7 % of glucose control. Besides, the “Insulin secretion, % of glucose control” value in data set [1] (glucose 8 mM, compound 10−6 M) is given as 90 ± 4 % of glucose control. The “Insulin secretion, % of glucose control” value in data set [1] (glucose 8 mM, compound 10−7 M) is on record as 84 ± 7 % of glucose control.
`CCCn1ccnc(S(=O)(=O)Cc2ccc(C)cc2)c1=O` [Example 6-3, 3-[(4-methylbenzyl)sulfonyl]-1-propylpyrazin-2(1H)-one] showed a melting point of 128 to 130 °C. For the same compound, in the data set with INS-1 cells, the activity at 10 µM is 144% and the activity at 50 µM is 207%. Moreover, the “Insulin secretion, % of glucose control” value in data set [1] (setting [2]) was 121 ± 7 % of glucose control. In data set [1] (glucose 8 mM, compound 10−4 M), the “Insulin secretion, % of glucose control” value is listed as 271 ± 5 % of glucose control. In addition, the “Insulin secretion, % of glucose control” value in data set [1] (glucose 8 mM, compound 10−5 M) was 131 ± 5 % of glucose control. The “Insulin secretion, % of glucose control” value in data set [1] (glucose 8 mM, compound 10−6 M) is given as 108 ± 5 % of glucose control. In data set [1] (glucose 8 mM, compound 10−7 M), the “Insulin secretion, % of glucose control” value is reported as 101 ± 6 % of glucose control.
Consider `CCn1ccnc(S(=O)(=O)Cc2ccccc2)c1=O` [Example 6, 3-benzylsulfonyl-1-ethylpyrazin-2(1H)-one], for which, in the data set with INS-1 cells, the activity at 10 µM worked out at 128% and the activity at 50 µM worked out at 184%.
`CCn1cc(-c2ccccc2)nc(S(=O)(=O)Cc2ccc(Cl)cc2)c1=O` [Example 14, 3-[(4-chlorobenzyl)sulfonyl]-1-ethyl-5-phenylpyrazin-2(1H)-one] yielded a melting point of 146 to 148 °C.
Compound `CCCn1ccnc(S(=O)(=O)Cc2ccccc2)c1=O` [Example 6-5, 3-(benzylsulfonyl)-1-propylpyrazin-2(1H)-one] came in with a melting point of 133 to 135 °C.
In the case of `CCCCn1ccnc(S(=O)(=O)Cc2cccc(C(F)(F)F)c2)c1=O` [Example 10-4, 1-butyl-3-[(3-trifluoromethylbenzyl)sulfonyl]pyrazin-2(1H)-one], in the data set on INS-1 cells, the activity at 10 µM turned out to be 187% and the activity at 50 µM worked out at 272%.
`CCCn1ccnc(S(=O)(=O)Cc2ccc(F)cc2)c1=O` [Example 6-4, 3-[(4-fluorobenzyl)sulfonyl]-1-propylpyrazin-2(1H)-one] gave a melting point of 123 to 125 °C. Besides, in the data set with INS-1 cells, the activity at 10 µM stood at 142% and the activity at 50 µM was determined as 203%.
`CCn1cc(Br)nc(S(=O)(=O)Cc2ccc(Cl)cc2)c1=O` [Example 13, 5-bromo-3-[(4-chlorobenzyl)sulfonyl]-1-ethylpyrazin-2(1H)-one] showed a melting point of 145 to 147 °C.
`CCn1cc(Cl)nc(S(=O)(=O)CC(=O)Nc2ccccc2)c1=O` [Example 18, 2-[(6-chloro-4-ethyl-3-oxo-3,4-dihydropyrazin-2-yl)sulfonyl]-N-phenylacetamide] had a melting point of 178 to 180 °C.
Compound `CCn1ccnc(S(=O)(=O)CCOc2ccc(OC)cc2)c1=O` [Example 10-7, 1-ethyl-3-{[2-(4-methoxyphenoxy)ethyl]sulfonyl}pyrazin-2(1H)-one] registered a melting point of 100 to 103 °C.

Values taken from patent US8637522B2, “Pyrazinone derivatives as insulin secretion stimulators, methods for obtaining them and use thereof for the treatment of diabetes” (Merck Patent GmbH, priority 2008, dated 2014).
